From ChEMBL document CHEMBL1201862, “PubChem BioAssay data set” (2004)
Activity calls are given as the source filed them.

Assays:
[1] = CellTiter-Glo luminescence survival assay, SW480 colon tumor line, concentration-response curve, half-maximal inhibitory concentration (AID 1117338); assay type: functional
[2] = RKO cell viability reduction, dose response, CellTiter-Glo luminescence (AID 1117322); assay type: functional
[3] = cytotoxicity toward HCT116 cells – cell-based, CellTiter-Glo luminescence, IC50, dose response (AID 1117332); assay type: functional; conditions: HCT-116
[4] = SNU-C1 cell viability reduction, dose response, CellTiter-Glo luminescence (AID 1117323); assay type: functional, cell-based
[5] = cytotoxicity toward Colo320 cells – cell-based, CellTiter-Glo luminescence, IC50, dose response (AID 1117334); assay type: functional; conditions: COLO 320
[6] = cytotoxicity toward HT-29 cells – cell-based, CellTiter-Glo luminescence, IC50, dose response (AID 1117330); assay type: functional
[7] = Reduced DLD-1 viability, concentration-response, CellTiter-Glo luminescence (AID 1117352); assay type: functional
[8] = HCT116 cell viability decrease, GSK3B pretreatment – CellTiter-Glo, IC50, dose response (AID 1117339); assay type: functional; conditions: HCT-116
Cryptococcus neoformans = experiment: PubChem AID 686997; assay type: functional, organism-based
[9] = viability loss in HepG2 hepatoma cells – cell-based, ATP luminescence, dry powder, set 2, cytotoxicity control, dose response (AID 743129); assay type: functional
[10] = TB: CFU replicating Measured in Microorganism System Using Imaging - 7108-05_Inhibitor_Dose_DryPowder_Activity_Set2.; assay type: functional
[11] = molecular target: Dual specificity tyrosine-phosphorylation-regulated kinase 1A (Rattus norvegicus, UniProt Q63470); assay type: biochemical, Homo sapiens
[12] = molecular target: T1, Sentrin-specific protease 1 (Homo sapiens, UniProt Q9P0U3); experiment: SENP1 catalytic domain blockers, concentration series – biochemical, kinetic FRET, dose response (AID 651697); assay type: functional; conditions: read-out: IC50_Mean
[13] = molecular target: T1, Sentrin-specific protease 1; experiment: Dose response confirmation of small molecule inhibitors of the catalytic domain of the SUMO protease, SENP1 in a FRET assay.; assay type: functional; conditions: read-out: IC50_Mean
[14] = viability loss in HeLa cells – cytotoxicity control for MgcRacGAP inhibitor project, dose response (AID 624300); assay type: functional
[15] = molecular target: T2, Rac GTPase-activating protein 1 (Homo sapiens, UniProt Q9H0H5); experiment: blockers of MgcRacGAP-driven Rac1 GTP hydrolysis – biochemical, ADP Hunter fluorescence, primary and confirmatory, confirmation (AID 624330); assay type: functional
T2 sequence (Q9H0H5 whole entry): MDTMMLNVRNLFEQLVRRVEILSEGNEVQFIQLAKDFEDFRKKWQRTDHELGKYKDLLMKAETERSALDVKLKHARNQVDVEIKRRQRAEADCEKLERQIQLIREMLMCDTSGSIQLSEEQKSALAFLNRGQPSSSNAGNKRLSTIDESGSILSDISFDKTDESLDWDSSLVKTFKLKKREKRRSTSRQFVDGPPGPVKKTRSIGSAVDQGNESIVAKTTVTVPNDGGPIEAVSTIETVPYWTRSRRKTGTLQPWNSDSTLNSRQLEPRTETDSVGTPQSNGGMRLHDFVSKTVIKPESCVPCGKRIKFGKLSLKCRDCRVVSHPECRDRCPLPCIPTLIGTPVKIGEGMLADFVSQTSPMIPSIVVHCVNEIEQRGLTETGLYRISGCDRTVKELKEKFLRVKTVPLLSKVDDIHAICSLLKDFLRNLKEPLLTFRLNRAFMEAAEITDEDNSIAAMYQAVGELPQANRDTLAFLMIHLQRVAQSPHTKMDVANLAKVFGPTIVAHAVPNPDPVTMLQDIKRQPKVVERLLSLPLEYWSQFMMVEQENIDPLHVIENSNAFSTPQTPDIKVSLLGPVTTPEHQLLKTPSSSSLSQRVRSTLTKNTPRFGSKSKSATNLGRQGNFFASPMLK

[16] = molecular target: T3, DNA repair protein RAD52 homolog (Homo sapiens, UniProt P43351); assay type: functional, biochemical
T3 sequence (P43351 whole entry): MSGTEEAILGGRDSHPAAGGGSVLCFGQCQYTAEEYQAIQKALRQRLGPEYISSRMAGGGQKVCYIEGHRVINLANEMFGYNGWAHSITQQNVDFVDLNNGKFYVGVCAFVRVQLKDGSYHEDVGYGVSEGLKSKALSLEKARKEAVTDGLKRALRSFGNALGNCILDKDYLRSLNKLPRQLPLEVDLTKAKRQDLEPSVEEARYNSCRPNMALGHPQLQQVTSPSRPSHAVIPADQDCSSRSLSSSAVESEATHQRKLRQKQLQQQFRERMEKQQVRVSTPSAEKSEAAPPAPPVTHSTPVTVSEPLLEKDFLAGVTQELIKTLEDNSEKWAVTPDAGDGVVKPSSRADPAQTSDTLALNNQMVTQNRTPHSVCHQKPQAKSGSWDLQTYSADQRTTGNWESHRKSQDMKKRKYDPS

Transthyretin = Transthyretin (Homo sapiens, UniProt P02766); experiment: Luminescence-based cell-based high throughput dose response assay to identify activators of Transthyretin (TTR) transcription.; assay type: functional

T1 sequence (Q9P0U3 whole entry, the tested form may be a part): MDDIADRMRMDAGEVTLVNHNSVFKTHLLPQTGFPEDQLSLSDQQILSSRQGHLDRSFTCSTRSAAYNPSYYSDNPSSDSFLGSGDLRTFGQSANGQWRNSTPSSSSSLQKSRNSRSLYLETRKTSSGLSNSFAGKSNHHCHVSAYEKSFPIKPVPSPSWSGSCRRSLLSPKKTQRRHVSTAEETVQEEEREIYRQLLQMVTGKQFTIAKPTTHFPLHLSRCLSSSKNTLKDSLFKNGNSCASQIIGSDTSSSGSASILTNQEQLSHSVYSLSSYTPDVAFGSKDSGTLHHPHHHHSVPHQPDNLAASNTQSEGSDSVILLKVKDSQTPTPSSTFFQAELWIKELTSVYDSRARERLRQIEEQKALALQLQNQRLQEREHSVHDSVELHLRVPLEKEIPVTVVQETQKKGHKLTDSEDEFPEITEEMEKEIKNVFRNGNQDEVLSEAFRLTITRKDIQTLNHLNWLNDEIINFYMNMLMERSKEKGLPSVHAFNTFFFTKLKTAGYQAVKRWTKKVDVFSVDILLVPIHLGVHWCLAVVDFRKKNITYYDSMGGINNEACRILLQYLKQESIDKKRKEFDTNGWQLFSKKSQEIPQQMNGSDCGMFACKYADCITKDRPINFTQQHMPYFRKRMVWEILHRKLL

Structure (SMILES): CCCCCCCCCCCCCCCCCC[N+](C)(C)CCC[Si](OC)(OC)OC
- IC50 [1]: > 20 µM (inactive)
- IC50 [2]: > 20 µM (inactive)
- IC50 [3]: > 20 µM (inactive)
- IC50 [4]: > 20 µM (inactive)
- IC50 [5]: > 20 µM (inactive)
- IC50 [6]: > 20 µM (inactive)
- IC50 [7]: > 20 µM (inactive)
- IC50 [8]: > 20 µM (inactive)

Structure (SMILES): COC(=O)C1=C(C)N(Cc2ccc(F)cc2)C(=S)NC1c1cccc(F)c1 (stereo not drawn)
- AC50 (Cryptococcus neoformans): 36.7 µM (active)
- AC50 [9]: > 52 µM (inactive)

Structure (SMILES): Cn1c(NC(=O)c2ccccc2)nc2c3cccnc3ccc21
- AbsAC90 [10]: 141.12 µM

Structure (SMILES): CN(C)CCNc1ccc(CO)c2oc3ccc(O)cc3c(=O)c12
- AC50 [11]: 8.03 µM (active)
- IC50 [12]: 14.1 µM (active)
- IC50 [13]: 21.6 µM (inactive)
- CC50 [14]: 50.8 µM (active)
- IC50 [15]: 128 µM (active)
- AC50 [16]: 2.51 µM (active)
- EC50 (Transthyretin): > 167 µM (inactive)
